Reference: patent US5434295A (priority 1994, dated 1995)
“Also recorded” adds a separate entry of the source.

Columns and labels:
AMPA/kainate receptors = test: Effect on kainate responses in oocytes; assay type: biochemical, rat
[1] = tested on: voltage-dependent P-type calcium channels; test: Inhibition of voltage-dependent P-type calcium channels expressed in oocytes; assay type: biochemical, rat
[2] = Lipophilicity / solubility (statement); assay type: physicochemical
Method: (§1) Sci., 82, 1069-1079 (1993).
Several NMDA receptor blockers were tested. These compounds have […] and have to be dissolved in 100% dimethyl sulfoxide (DMSO) and diluted for use in ND-96 that contained 1% DMSO. Therefore, the effect of 1% DMSO on the response to 10^-4 M NMDA and 5×10^-6 M glycine was examined. DMSO had no effect on NMDA response in three different cells.

[3] = tested on: cerebral ischemia in gerbils; test: Neurobehavioral scores in gerbils after bilateral common carotid artery occlusion; assay type: in vivo, Mongolian gerbils
Excerpt: Inhibition of ischemic neuronal damage in gerbils: Temporary blockage of the blood supply to the gerbil brain by surgical ligation of the two major arteries (common carotids) results in transient global forebrain ischemia. Temporary global ischemia produces a delayed, selective degeneration of neurons in the hippocampus, a brain structure essential for memory formation. The ability of various compounds to prevent hippocampal cell loss and the attendant memory deficits is considered a measure of their potency as neuroprotectants in ischemic conditions.
The data are presented as average differential scores between the initial score obtained 5 hrs post-ischemia and that obtained on each successive day. The drug was administered intravenously 30 min post-ischemia.
Mongolian gerbils (male), 65-70 gr (Tumblebrook Farm) underwent the ischemic procedure while anaesthetised with equithisine.
Common carotid arteries (CCA) were isolated and 3-0 silk suture material was positioned loosely round them. The tips of each loop were tied together, and the suture material was buried beside the trachea. The ventral neck incision was then sutured. In the following day, they were lightly anaesthetised with ether, the neck skin wounds were opened and both CCA were occluded for 10 minutes using small artery clips. During the ischemia and until the animals recovered (regaining righting reflexes), they were maintained in a warm state (36.5°-37.5° C. rectal temperature). Thirty minutes following onset of ischemia, animals were reanaesthetised (ether) and the appropriate drug was administered I.V. via the femoral vein.
Clinical evaluation. […] This was done every 24 hours, for the entire 96-hour period. […]
Statistics. Neuroclinical appearance was analyzed using Wilcoxon Rank Sum Test. The histopathological evaluation was analyzed using One-Way ANOVA followed by Duncan's Test.
Gerbils were scored for their clinical symptoms following the ischemic insult according to the system described by Rudolphi et al. (Table 4). Each animal was evaluated daily over 4 consecutive days (Day 1 being the day of CCA occlusion). […]

[4] = tested on: intraocular pressure (IOP); test: Ocular hypotensive activity (intraocular pressure) in albino rabbits; assay type: in vivo, albino rabbit; conditions: for Max ΔIOP: ** drug vs. vehicle P < 0.01
Method: Bicyclic compounds of the present invention were also tested for IOP lowering effects.
as §1
The phospholipids and HU-259 were dissolved in the stabilized oily phase. The other excipients were dissolved in the aqueous phase. Both phases were heated separately to 70° C. and dispersed by a magnetic stirrer. Emulsification was completed using a "high speed mixer" for 5 min at 85° C. The resulting emulsion was cooled rapidly below 20° C. and homogenized using a two-stage homogenizing valve assembly (Gaulin Homogenizer, APV Gaulin, Hilversum, The Netherlands) for 5 min. All the manufacturing procedures were carried out under aseptic conditions and a nitrogen atmosphere. The pH was adjusted to 7.4 using a sodium hydroxide solution (10%). The final fine emulsion was filtered to achieve sterility and stored in ampoules. A typical formulation (%, w/w) consisted of the following: HU-259, 0.2%; oily phase, 20.0%; purified fractionated egg phospholipids, 1.2%; nonionic emulsifier, 2%; glycerin, 2.25%; α-tocopherol, 0.02%; methyl and butyl p-hydroxy- benzoic ester, 0.3 and 0.075%, respectively; and water for injection, to 100.0 g. The control emulsion vehicle was prepared using identical experimental conditions but without drug.
IOP was measured by using a pneumatonometer (Digilab T30). Pressure readings were calibrated for verification every 6 h. One drop (50 μl) of local anesthetic (Benoxinate HCl, 0.4% Fischer [Isr] diluted 1:3 with sterile saline) was instilled into each eye prior to IOP measurements.

GABA receptors = test: Effect on GABA responses in oocytes; assay type: biochemical, rat
[5] = tested on: quisqualate-induced toxicity in primary cerebral cortical cell cultures; test: Protection of cortical neurons in culture from quisqualate-induced toxicity; assay type: cell-based; conditions: Rattus norvegicus, Cortical neurone; 10 μM compound; quisqualate 500 μM; read-out: % of cells rescued from quisqualate-induced toxicity
Method: The neuroprotective effects of the compounds of the invention were tested on neurons exposed to various excitotoxins in culture. The compounds tested included HU-259, HU-260, HU-270 and HU-271, which were all shown to have NMDA antagonist properties in mice (Example 13).
The test drugs were examined for their ability to protect neurons in culture from toxic effects of agonists of the different glutamate receptor subtypes (agonists of ionotropic and/or metabotropic glutamate receptors), e.g. NMDA, AMPA, kainate and quisqualate. The culture conditions and assay conditions were all performed as described in Eshhar et al. (NeuroReport 5, No. 3, 1993). In brief, primary cerebral cortical cell cultures were prepared from 18-20 day old rat fetuses by enzymatic dissociation. Resulting cell suspensions were plated on confluent cortical glial cell feder layer (prepared 2 weeks earlier by a similar method). […] Cell viability was determined morphologically following neuron specific enolase immunostaining of cells using the ABC biotin-avidin complex method, and determined quantitatively by measuring the extent of mitochondrial activity in living cells using the XTT-based assay. […] The density of color formation (O.D.), which is proportional to mitochondrial activity, was measured by a plate ELISA reader. The extent of neuroprotectant activity is expressed as % of cells rescued by the drugs tested.

| SMILES | effect on kainate responses (AMPA/kainate receptors) | inhibition of activity of voltage-dependent P-type calcium channels [1] | lipophilicity [2] | neurobehavioral scores / clinical symptoms ([3]; 8 mg/kg i.v. 30 min post-ischemia) | animals showing no signs ([3]; three days post-ischemia) | animals showing only mild signs ([3]; three days post-ischemia) | AUC (from instillation of treatment until return to baseline IOP) ([4]; contralateral eye) | contralateral eye pressure lowered by ([4]; contralateral eye, single dose application) | Max ΔIOP ([4]; contralateral eye) | time of maximal ocular hypotensive effect ([4]; post-application) | time at which pressure returned to baseline level ([4]; post-treatment) | duration of statistically significant reduction in IOP compared to vehicle ([4]; single dose 30 microliter 0.2% emulsion) | AUC (from instillation of treatment until return to baseline IOP) ([4]; treated eye) | Max ΔIOP ([4]; treated eye, single dose 0.2% emulsion) | Pressure dropped by (maximal ocular hypotensive effect) ([4]; treated right eye, 3 h post-application, P<0.01) | effect on GABA responses (GABA receptors) | inhibition at 10 µM [5] |
| --- | --- | --- | --- | --- | --- | --- | --- | --- | --- | --- | --- | --- | --- | --- | --- | --- | --- |
| CCCCCCC(C)(C)c1cc(OC(C)=O)c([C@H]2C=C(C(=O)O)[C@H]3C[C@@H]2C3(C)C)c(OC(C)=O)c1 [(+)-4-[4-DMH-2,6 diacetoxyphenyl]-2-carboxy-6,6-dimethylbicyclo[3.1.1]hept-2-en] | no effect | did not inhibit | very lipophilic | improvement in neurobehavioral scores; also recorded: statistically significant improvement compared to controls | 90% | 10% | -7.8 ± 8.1 mmHg × hrs | 2.5±0.9 mmHg | -2.5 ± 0.9 mmHg | 3 h | 7 h | over five hours | -10.9 ± 10.9 mmHg × hrs | -3.2 ± 0.7 mmHg | 3.2±0.7 mmHg | no effect |  |
| CCCCCCC(C)(C)c1cc(OC(C)=O)c([C@H]2C=C(C(=O)NCCO)[C@H]3C[C@@H]2C3(C)C)c(OC(C)=O)c1 [HU-271] |  |  |  |  |  |  |  |  |  |  |  |  |  |  |  |  | 37% |
